The source of these data is patent publication US20220257774A1, “AROMATIC AMINE AR AHD BET TARGETING PROTEIN DEGRADATION CHIMERA COMPOUND AND USE” (HINOVA PHARMACEUTICALS INC., priority 2019, published 2022).

Like-named read-outs stand apart in the source and are kept apart here.

Assay [1] has as its system LNCaP/AR cells. The assay is described as follows: Inhibition of the proliferation of LNCap/AR cells (CCK-8). The format is cell-based. The note with it: LNCaP/AR cells, 6 days culture, CCK-8, read-out: LNCap/AR IC50. The method in brief: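 LNCaP/AR cells (1000/well, RPMI1640 + 10% FBS) were treated for 6 days at 37 °C with 9-point 3-fold dilutions from 10 μM final, 0.1% DMSO, in duplicate. Viability was read by CCK-8 absorbance at 450 nm after 1 h, and IC50 came from a dose-response-inhibition fit.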

In assay [2] the test system is 22RV1 cells. Description: Inhibition of the proliferation of drug-resistant prostate cancer cell 22RV1 (CCK-8). The format is cell-based. The note with it: 22RV1 cells (enzalutamide-resistant), same method. On the procedure:
(1) Experimental materials and instruments: LNCaP/AR cell line and 22RV1 cell line (provided by Sichuan Kangcheng Biotechnology Co., Ltd.) Fetal bovine serum FBS (Gibco, Cat. No. 10099-141) 0.01M PBS (Biosharp, Cat. No. 162262) RIPM1640 medium (Hyclone, Cat. No. 308090.01) Penicillin-Streptomycin (Hyclone, Cat. No. SV30010) Cell counting kit-8 (Signalway Antibody, Cat. No. CP002) DMSO (Sigma, Cat. No. D5879) Centrifuge Tube, 15 ml (Excell Bio, Cat. No. CS015-0001) Cell Culture Dish, (Excell Bio, Cat. No. CS016-0128) 96-well cell culture plate (Corning, Cat. No. 3599) Microplate reader (Thermo Multiskan MK3 type)
a. Preparation of Buffer Cell culture medium: RIPM1640 medium, 10% FBS, 1% Pen Strep: PBS buffer: PBS powder was dissolved in 2 L of ultrapure water and sterilized. b. Experimental Procedures 1) LNCaP/AR cells were subcultured in cell culture media, and then the cells in good growth condition were seeded in a 96-well plate at 80 μL/well (1000 cells/well), and cultured overnight in a 37° C., 5% CO2 cell incubator. 2) The drug was prepared into a 10 mM stock solution with dimethyl sulfoxide (DMSO). Prior to use, the stock solution was diluted in a ratio of […] with DMSO, and then diluted at a 3-fold gradient to obtain 9 serial concentrations. Then, each concentration of compound was further diluted in a ratio of 1:200 with the culture medium (to ensure that the DMSO concentration in the culture system was 0.1%), and two wells were set for each concentration. 20 μL of the diluted compound solution was added to the well of the cell culture (with a final concentration of 10 μM, 3.3 μM, 1.1 μM . . . ), and then the plate was gently tapped to thoroughly mix. In addition, the experiment included 3 negative control wells only containing cells and 3 blank control wells only containing culture medium (6 wells were each added with DMSO diluted in a ratio of 1:200 with 20 μL of culture medium). c. Result Detection: 1) After culturing for 6 days, 10 μL of CCK-8 was added to each well, and the plate was further incubated for 1 h in a 37° C., 5% CO2 cell incubator. 2) The absorbance (OD value) was measured at 450 nm with a multifunctional microplate reader. 3) The data was analyzed by the Dose-response-inhibition equation in the software GraphPad Prism5, and the IC50 value was obtained. 2. Biological assay of the inhibition on the proliferation of other drug-resistant prostate cancer cells
The same test method was used to determine the inhibitory activity of the compound according to the present invention against drug-resistant prostate cancer cell 22RV1.

Take `Cc1ccc(-c2c(C)n[nH]c2C)cc1N(CCCCCOCC(=O)N[C@H](C(=O)N1C[C@H](O)C[C@H]1C(=O)N[C@@H](C)c1ccc(-c2scnc2C)cc1)C(C)(C)C)c1ccc(C#N)c(Cl)c1` [Compound 79, (2S,4R)-1-((S)-2-(2-((5-((3-chloro-4-cyanophenyl)(5-(3,5-dimethyl-1H-pyrazol-4-yl)-2-methylphenyl)amino)pentyl)oxy)acetylamino)-3,3-dimethylbutyryl)-4-hydroxy-N—((S)-1-(4-(4-methylthiazol-5-yl)phenyl)ethyl)pyrrolidinyl-2-formamide]: the results for the IC50 in assay [1] and in assay [2] were 101 to 500 nM and > 2000 nM, respectively.

Turning to `CC(=O)O[C@@H]1C[C@@H](C(=O)N[C@@H](C)c2ccc(-c3scnc3C)cc2)N(C(=O)[C@@H](NC(=O)COCCCCCN(c2ccc(C#N)c(Cl)c2)c2cc(-c3c(C)n[nH]c3C)ccc2C)C(C)(C)C)C1` [Compound 80], the values for the IC50 in assay [1] and in assay [2] were 501 to 2000 nM and > 2000 nM, respectively.

Regarding `Cc1ccc(-c2c(C)noc2C)cc1N(CC(C)O[C@@H]1CCN(c2ccc3c(c2)C(=O)N(C2CCC(=O)NC2=O)C3=O)C1)c1ccc(C2(C#N)CC2)cc1` (stereo partly drawn) [Compound 102, 1-(4-((5-(3,5-Dimethylisoxazol-4-yl)-2-methylphenyl)(2-(((3R)-1-(2-(2,6-dioxopiperidin-3-yl)-1,3-dioxoisoindolin-5-yl)pyrrolidin-3-yl)oxy)propyl)amino)phenyl)cyclopropanecarbonitrile], the IC50 in assay [1] (144 h) and in assay [2] (Homo sapiens) was > 2000 nM in each case.

Turning to `Cc1ccc(-c2c(C)noc2C)cc1N(CC(C)O[C@H]1CCN(c2ccc3c(c2)C(=O)N(C2CCC(=O)NC2=O)C3=O)C1)c1ccc(C2(C#N)CC2)cc1` (stereo partly drawn) [Compound 103, 1-(4-((5-(3,5-Dimethylisoxazol-4-yl)-2-methylphenyl)(2-(((3S)-1-(2-(2,6-dioxopiperidin-3-yl)-1,3-dioxoisoindolin-5-yl)pyrrolidin-3-yl)oxy)propyl)amino)phenyl)cyclopropanecarbonitrile], the IC50 in assay [1] (144 h) and in assay [2] (Homo sapiens) was > 2000 nM throughout.

As to `Cc1ccc(-c2c(C)noc2C)cc1N(CC1CCC(COc2ccc3c(c2)C(=O)N(C2CCC(=O)NC2=O)C3=O)CC1)c1ccc(C#N)c(Cl)c1` (centres unmarked) [Compound 104, 2-Chloro-4-((5-(3,5-dimethylisoxazol-4-yl)-2-methylphenyl)((1r,4r)-4-((2-(2,6-dioxopiperidin-3-yl)-1,3-dioxoisoindolin-5-yl)oxy)methyl)cyclohexyl)methyl)amino)benzonitrile], the IC50 in assay [1] was 501 to 2000 nM; in assay [2], 101 to 500 nM.

On to `Cc1ccc(-c2c(C)noc2C)cc1N(CC1CCC(COc2ccc3c(c2)CN(C2CCC(=O)NC2=O)C3=O)CC1)c1ccc(C#N)c(Cl)c1` (centres unmarked) [Compound 105, 2-Chloro-4-((5-(3,5-dimethylitsoxazol-4-yl)-2-methylphenyl)((1r,4r)-4-((2-((2,6-dioxopiperidin-3-yl)-1-oxoisoindolin-5-yl)oxy)methyl)cyclohexyl)methyl)amino)benzonitrile], for which the IC50 in assay [1] was 501 to 2000 nM; in assay [2] it was 101 to 500 nM.

Regarding `Cc1ccc(-c2c(C)noc2C)cc1N(CC1CCN(c2cc3c(cc2F)C(=O)N(C2CCC(=O)NC2=O)C3=O)C1)c1ccc(C2(C#N)CC2)cc1` (centres unmarked) [Compound 107], the IC50 in assay [1] (144 h) and in assay [2] (Homo sapiens) was > 2000 nM throughout.

Consider `Cc1ccc(-c2c(C)noc2C)cc1N(CCCCOc1ccc2c(c1)C(=O)N(C1CCC(=O)NC1=O)C2=O)c1ccc(C2(C#N)CC2)cc1` (centres unmarked) [Compound 108, 1-(4-((5-(3,5-Dimethylisoxazol-4-yl)-2-methylphenyl)(4-((2-(2,6-dioxopiperidin-3-yl)-1,3-dioxoisoindolin-5-yl)oxy)butyl)amino)phenyl)cyclopropanecarbonitrile], for which the IC50 is > 2000 nM in assay [1] (144 h) and 501 to 2000 nM in assay [2] (Homo sapiens).

`Cc1ccc(-c2c(C)noc2C)cc1N(CC1CCN(C2CN(c3ccc4c(c3)C(=O)N(C3CCC(=O)NC3=O)C4=O)C2)CC1)c1ccc(C2(C#N)CC2)cc1` (centres unmarked) [Compound 109, 1-(4-((5-(3,5-Dimethylisoxazol-4-yl)-2-methylphenyl)((1-(1-(2-(2,6-dioxopiperidin-3-yl)-1,3-dioxoisoindolin-5-yl)azetidin-3-yl)piperidin-4-yl)methyl)amino)phenyl)cyclopropanecarbonitrile]: the IC50 in assay [1] (144 h) and in assay [2] (Homo sapiens) was < 100 nM throughout.

In the case of `Cc1ccc(-c2c(C)noc2C)cc1N(CCOC1(C)CN(c2ccc3c(c2)C(=O)N(C2CCC(=O)NC2=O)C3=O)C1)c1ccc(C2(C#N)CC2)cc1` (centres unmarked) [Compound 110, 1-(4-((5-(3,5-Dimethylisoxazol-4-yl)-2-methylphenyl)(2-((1-(2-(2,6-dioxopiperidin-3-yl)-1,3-dioxoisoindolin-5-yl)-3-methylazetidin-3-yl)oxy)ethyl)amino)phenyl)cyclopropanecarbonitrile], the IC50 in assay [1] (144 h) and in assay [2] (Homo sapiens) was > 2000 nM throughout.

For the molecule `Cc1ccc(-c2c(C)noc2C)cc1N(CCOC1(C)CN(c2cc3c(cc2F)CN(C2CCC(=O)NC2=O)C3=O)C1)c1ccc(C2(C#N)CC2)cc1` (centres unmarked) [Compound 112, 1-(4-((5-(3,5-Dimethylisoxazol-4-yl)-2-methylphenyl)(2-((1-(2-(2,6-dioxopiperidin-3-yl)-6-fluoro-3-oxoisoindolin-5-yl)-3-methylazetidin-3-yl)oxy)ethyl)amino)phenyl)cyclopropanecarbonitrile], the IC50 in assay [1] (144 h) and in assay [2] (Homo sapiens) was > 2000 nM in each case.

As to `Cc1ccc(-c2c(C)noc2C)cc1N(C[C@H]1CC[C@H](Nc2cc3c(cc2F)CN(C2CCC(=O)NC2=O)C3=O)CC1)c1ccc(C2(C#N)CC2)c(Cl)c1` (some centres unmarked) [Compound 114], the IC50 in assay [1] and in assay [2] was 101 to 500 nM throughout.

As for `Cc1ccc(-c2c(C)noc2C)cc1N(CC1CCC(Nc2cc3c(cc2F)C(=O)N(C2CCC(=O)NC2=O)C3)CC1)c1ccc(C2(C#N)CC2)cc1` (centres unmarked) [Compound 115, 1-(4-((5-(3,5-Dimethylisoxazol-4-yl)-2-methylphenyl)((((1r,4r)-4-((2-(2,6-dioxopiperidin-3-yl)-6-fluoro-1-oxoisoindolin-5-yl)amino)cyclohexyl)methyl)amino)phenyl)cyclopropanecarbonitrile], the IC50 in assay [1] was 101 to 500 nM; in assay [2] it was 501 to 2000 nM.

In the case of `Cc1ccc(-c2c(C)noc2C)cc1N(CC1CCC(Nc2ccc3c(c2)C(=O)N(C2CCC(=O)NC2=O)C3=O)CC1)c1ccc(C2(C#N)CC2)cc1` (centres unmarked) [Compound 116, 1-(4-((5-(3,5-Dimethylisoxazol-4-yl)-2-methylphenyl)((((1r,4r)-4-((2-(2,6-dioxopiperidin-3-yl)-1,3-dioxoisoindolin-5-yl)amino)cyclohexyl)methyl)amino)phenyl)cyclopropanecarbonitrile], the IC50 in assay [1] is 101 to 500 nM; in assay [2], > 2000 nM.

With `Cc1ccc(-c2c(C)noc2C)cc1N(CCCOC1CN(c2ccc3c(c2)C(=O)N(C2CCC(=O)NC2=O)C3=O)C1)c1ccc(C2(C#N)CC2)cc1` (centres unmarked) [Compound 119, 1-(4-((5-(3,5-dimethylisoxazol-4-yl)-2-methylphenyl)(3-((1-(2-(2,6-dioxopiperidin-3-yl)-1,3-dioxoisoindolin-5-yl)azetidin-3-yl)oxy)propyl)amino)phenyl)cyclopropane-1-nitrile], the values for the IC50 in assay [1] (144 h) and in assay [2] (Homo sapiens) were 101 to 500 nM and > 2000 nM, respectively.

As for `Cc1ccc(-c2c(C)noc2C)cc1N(CCCOC1CN(c2ccc3c(c2)C(=O)N(C2CCC(=O)NC2=O)C3)C1)c1ccc(C2(C#N)CC2)cc1` (centres unmarked) [Compound 121, 1-(4-((5-(3,5-dimethylisoxazol-4-yl)-2-methylphenyl)(3-((1-(2-(2,6-dioxopiperidin-3-yl)-3-oxoisoindolin-5-yl)azetidin-3-yl)oxy)propyl)amino)phenyl)cyclopropane-1-nitrile], the IC50 in assay [1] (144 h) is 101 to 500 nM; in assay [2] (Homo sapiens), < 100 nM.
